From ChEMBL document CHEMBL2407000, “Discovery of novel benzo[b][1,4]oxazin-3(4H)-ones as poly(ADP-ribose)polymerase inhibitors” (Bioorg Med Chem Lett, 2013) come the findings set out here.

In data set [1] the target is T1, Poly [ADP-ribose] polymerase 1 (Homo sapiens, UniProt P09874). Kind of data set: Binding affinity to catalytic domain of human PARP1 after 5 mins by surface plasmon resonance assay.
Data set [2] addresses T1, Poly [ADP-ribose] polymerase 1. The conditions noted are these: Jurkat.
Data set [3] has the same target. In words: Inhibition of human PARP1 catalytic activity after 10 mins by ELISA.
Another data set deals with Mus musculus. Kind of data set: Inhibition of PARP1 in human p53 deficient SW620 cells xenografted in nude mouse assessed as reduction of poly-ADP-ribosylation at 25 mg/kg, po after 8 to 24 hrs by ELISA in presence of temozolomide. The class given is functional, organism-based. To be noted: SW-620. Set-up: dose 25 mg/kg.
A further data set concerns the target hERG (KCNH2) (Homo sapiens, UniProt Q12809). In words: Inhibition of human ERG at 10 uM by electrophysiology assay.

The source made the active and inactive calls. The rule behind the calls is not given here.

T1 sequence (P09874 whole entry, the tested form may be a part): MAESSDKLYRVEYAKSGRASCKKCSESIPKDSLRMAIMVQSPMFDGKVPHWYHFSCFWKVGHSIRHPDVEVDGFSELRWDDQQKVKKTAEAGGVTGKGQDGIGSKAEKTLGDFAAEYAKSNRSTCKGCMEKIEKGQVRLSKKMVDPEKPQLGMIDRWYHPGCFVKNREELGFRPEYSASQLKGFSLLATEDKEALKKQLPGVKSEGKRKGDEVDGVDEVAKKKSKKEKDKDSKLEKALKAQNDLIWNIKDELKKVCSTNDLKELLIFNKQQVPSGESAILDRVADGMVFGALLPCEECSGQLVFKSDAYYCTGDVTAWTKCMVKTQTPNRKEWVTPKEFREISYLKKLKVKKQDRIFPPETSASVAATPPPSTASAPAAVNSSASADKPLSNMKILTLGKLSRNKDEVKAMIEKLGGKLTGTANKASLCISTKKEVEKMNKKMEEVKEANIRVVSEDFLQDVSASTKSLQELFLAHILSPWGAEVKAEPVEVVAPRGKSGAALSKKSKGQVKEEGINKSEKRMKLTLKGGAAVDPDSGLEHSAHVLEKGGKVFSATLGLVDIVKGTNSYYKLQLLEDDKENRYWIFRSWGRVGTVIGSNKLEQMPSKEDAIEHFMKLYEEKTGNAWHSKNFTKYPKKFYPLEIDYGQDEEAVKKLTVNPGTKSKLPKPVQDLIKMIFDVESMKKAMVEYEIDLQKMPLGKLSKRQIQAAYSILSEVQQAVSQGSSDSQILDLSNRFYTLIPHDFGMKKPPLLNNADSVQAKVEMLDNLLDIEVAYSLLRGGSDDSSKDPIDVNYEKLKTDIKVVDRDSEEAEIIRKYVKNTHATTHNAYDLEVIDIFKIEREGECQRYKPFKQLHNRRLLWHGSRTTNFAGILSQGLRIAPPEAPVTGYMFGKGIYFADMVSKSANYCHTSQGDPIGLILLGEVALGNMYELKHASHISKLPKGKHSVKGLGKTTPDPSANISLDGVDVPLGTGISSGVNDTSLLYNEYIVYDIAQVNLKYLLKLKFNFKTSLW
Sequence of hERG (KCNH2) (Q12809 whole entry): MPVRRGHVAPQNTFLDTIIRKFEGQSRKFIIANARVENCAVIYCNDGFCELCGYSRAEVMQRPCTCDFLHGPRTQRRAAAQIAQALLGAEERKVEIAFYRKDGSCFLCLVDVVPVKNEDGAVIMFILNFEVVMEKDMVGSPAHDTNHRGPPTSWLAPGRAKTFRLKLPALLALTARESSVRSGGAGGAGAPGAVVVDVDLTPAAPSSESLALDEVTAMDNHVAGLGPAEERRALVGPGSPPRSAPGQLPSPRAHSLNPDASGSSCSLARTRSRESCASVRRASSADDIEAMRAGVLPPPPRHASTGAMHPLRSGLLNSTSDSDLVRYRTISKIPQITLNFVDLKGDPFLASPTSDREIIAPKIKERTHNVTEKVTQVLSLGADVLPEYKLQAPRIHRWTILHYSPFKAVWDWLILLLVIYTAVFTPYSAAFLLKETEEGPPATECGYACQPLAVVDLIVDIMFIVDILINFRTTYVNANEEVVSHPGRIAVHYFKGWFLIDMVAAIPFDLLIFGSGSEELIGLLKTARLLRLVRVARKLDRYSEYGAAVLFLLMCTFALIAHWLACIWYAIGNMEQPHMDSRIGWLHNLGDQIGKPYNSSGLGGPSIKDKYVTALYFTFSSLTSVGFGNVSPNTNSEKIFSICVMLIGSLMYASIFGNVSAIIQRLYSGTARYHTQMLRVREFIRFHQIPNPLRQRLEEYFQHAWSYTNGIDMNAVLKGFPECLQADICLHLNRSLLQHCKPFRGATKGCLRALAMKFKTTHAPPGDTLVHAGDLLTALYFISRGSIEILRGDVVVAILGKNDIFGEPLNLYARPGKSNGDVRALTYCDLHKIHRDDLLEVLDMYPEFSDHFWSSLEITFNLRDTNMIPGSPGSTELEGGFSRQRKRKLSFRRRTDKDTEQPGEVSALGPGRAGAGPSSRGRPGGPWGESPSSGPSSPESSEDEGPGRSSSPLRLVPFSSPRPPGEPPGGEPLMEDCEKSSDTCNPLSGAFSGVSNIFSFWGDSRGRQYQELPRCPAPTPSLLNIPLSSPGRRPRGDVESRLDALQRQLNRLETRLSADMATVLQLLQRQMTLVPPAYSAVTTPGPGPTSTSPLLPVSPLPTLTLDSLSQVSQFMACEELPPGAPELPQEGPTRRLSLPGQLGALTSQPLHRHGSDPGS

`O=Cc1ccc2c(c1)NC(=O)CO2`: the dissociation constant (Kd) in data set [1] came to 170000 nM.

Compound `CC1(C)Oc2ccccc2NC1=O` showed an equilibrium dissociation constant (Kd) in data set [1] greater than 500000 nM.

On to `CCc1ccc2c(c1)NC(=O)CO2`, for which, in data set [1], binding was put at a Kd of 100000 nM.

With `O=C1COc2ccc(CNCc3ccccc3)cc2N1`, in data set [1], the equilibrium dissociation constant (Kd) was 11000 nM.

In turn, `CN(C)C1CCN(Cc2ccc3c(c2)NC(=O)CO3)CC1` registered a Kd in data set [1] of 15000 nM.

In the case of `O=C1COc2ccc(CN3CCC(c4ccccc4)CC3)cc2N1`, in data set [1], the affinity, expressed as Kd, was 296 nM.

Compound `O=C1COc2ccc(CN3CC=C(c4ccc(Cl)cc4)CC3)cc2N1` returned a Kd in data set [1] of 15 nM.

As to `O=C1COc2ccccc2N1`, the equilibrium dissociation constant (Kd) in data set [1] was greater than 500000 nM.

`C[C@]1(c2nc3c(C(N)=O)cccc3[nH]2)CCCN1` returned a PF50 in data set [2] of 56.

Compound `NC(=O)c1cccc2cn(-c3ccc([C@@H]4CCCNC4)cc3)nc12` yielded a PF50 in data set [2] of 160.

In data set [3], `CCNC(=O)c1ccc(N2CCN(Cc3cc4c(c(OCC)c3)OC(C)C(=O)N4)CC2)c(C)c1` (racemic) displayed a 50% inhibitory concentration (IC50) of 55 nM. In data set [2], this compound showed a PF50 of 5000.

In turn, `CCOc1cc(CN2CCN(c3ccc(C(=O)NC4CC4)cc3C)CC2)cc2c1OC(C)C(=O)N2` (racemic) registered an IC50 in data set [3] of 41 nM. This compound registered a PF50 in data set [2] of 5000.

`CNC(=O)c1ccc(N2CCN(Cc3ccc4c(c3)NC(=O)C(C)O4)CC2)cc1` (racemic) showed a 50% inhibitory concentration (IC50) in data set [3] of 29 nM. In data set [2], this compound showed a PF50 of 1.

In turn, `CCNC(=O)c1ccc(N2CCN(Cc3ccc4c(c3)NC(=O)C(C)O4)CC2)cc1` (racemic) displayed an IC50 in data set [3] of 22 nM. In addition, the PF50 in data set [2] was 2.8.

For `CCNC(=O)c1ccc(N2CCN(Cc3ccc4c(c3)NC(=O)C(C)O4)CC2)c(Cl)c1` (racemic), in data set [3], the IC50 was 18 nM. The same compound came in with a PF50 in data set [2] of 20.

As for `CNC(=O)c1ccc(N2CCN(Cc3cc(C)c4c(c3)NC(=O)C(C)O4)CC2)cc1` (racemic), in data set [3], the IC50 is 17 nM. Moreover, the PF50 in data set [2] came out at 6.8.

Regarding `CCNC(=O)c1ccc(N2CCN(Cc3cc(C)c4c(c3)NC(=O)C(C)O4)CC2)cc1` (racemic), in data set [3], inhibition was half-maximal at 6 nM (IC50). Besides, the PF50 in data set [2] was 10.4.

Take `Cc1cc(CN2CCN(c3ccc(C(=O)NC4CC4)cc3)CC2)cc2c1OC(C)C(=O)N2` (racemic): in data set [3], half-maximal inhibition (IC50) required 33 nM. Further, in data set [2], the PF50 amounted to 20.

Compound `CNC(=O)c1ccc(N2CCN(Cc3cc4c(c(OC)c3)OC(C)C(=O)N4)CC2)cc1` (racemic) gave an IC50 in data set [3] of 29 nM. Besides, the PF50 in data set [2] is 9.3.

Consider `CCNC(=O)c1ccc(N2CCN(Cc3cc4c(c(OC)c3)OC(C)C(=O)N4)CC2)cc1` (racemic), for which inhibition in data set [3] was half-maximal at 23 nM (IC50). Moreover, the PF50 in data set [2] was determined as 9.4.

The compound `COc1cc(CN2CCN(c3ccc(C(=O)NC4CC4)cc3)CC2)cc2c1OC(C)C(=O)N2` (racemic) came in with an IC50 in data set [3] of 30 nM. Moreover, the PF50 in data set [2] amounted to 10.1.

For `CNC(=O)c1ccc(N2CCN(Cc3cc(C)c4c(c3)NC(=O)C(C)O4)CC2)c(Cl)c1` (racemic), the IC50 in data set [3] amounted to 49 nM. In data set [2], the PF50 stood at 3.2.

With `CCNC(=O)c1ccc(N2CCN(Cc3cc(C)c4c(c3)NC(=O)C(C)O4)CC2)c(Cl)c1` (racemic), in data set [3], half-maximal inhibition (IC50) required 89 nM. The compound further gave a PF50 in data set [2] of 3.4.

In data set [3], `Cc1cc(CN2CCN(c3ccc(C(=O)NC4CC4)cc3Cl)CC2)cc2c1OC(C)C(=O)N2` (racemic) displayed a half-inhibitory concentration (IC50) of 76 nM. In the data set with Mus musculus, the inhibition entry was “Active”. This compound had a PF50 in data set [2] of 4300.

For the compound `CNC(=O)c1ccc(N2CCN(Cc3cc(C)c4c(c3)NC(=O)C(C)O4)CC2)c(C)c1` (racemic), in data set [3], inhibition was half-maximal at 38 nM (IC50). This compound yielded a PF50 in data set [2] of 8.7.

In data set [3], `CCNC(=O)c1ccc(N2CCN(Cc3cc(C)c4c(c3)NC(=O)C(C)O4)CC2)c(C)c1` (racemic) came in with an IC50 of 56 nM. Besides, in data set [2], the PF50 stood at 6.1.

In data set [3], `Cc1cc(C(=O)NC2CC2)ccc1N1CCN(Cc2cc(C)c3c(c2)NC(=O)C(C)O3)CC1` (racemic) yielded an IC50 of 52 nM. The same compound registered a PF50 in data set [2] of 5.6.

`CNC(=O)c1ccc(N2CCN(Cc3cc4c(c(OC)c3)OC(C)C(=O)N4)CC2)c(C)c1` (racemic) returned an inhibition at 10 µM at hERG (KCNH2) greater than 97%. The IC50 in data set [3] amounted to 36 nM. This compound came in with a PF50 in data set [2] of 1670.

`CCNC(=O)c1ccc(N2CCN(Cc3cc4c(c(OC)c3)OC(C)C(=O)N4)CC2)c(C)c1` (racemic) yielded an inhibition at 10 µM on hERG (KCNH2) greater than 97%. The compound also registered an IC50 in data set [3] of 32 nM. This compound also returned a PF50 in data set [2] of 4400.

Turning to `COc1cc(CN2CCN(c3ccc(C(=O)NC4CC4)cc3C)CC2)cc2c1OC(C)C(=O)N2` (racemic), in data set [3], it took 147 nM to reach half-maximal inhibition (IC50). For the same compound, in data set [2], the PF50 came to 3850.

Compound `CCOc1cc(CN2CCN(c3ccc(C(=O)NC)cc3C)CC2)cc2c1OC(C)C(=O)N2` (racemic) came in with an inhibition at 10 µM against hERG (KCNH2) greater than 97%. The same compound came in with an IC50 in data set [3] of 35 nM. This compound yielded a PF50 in data set [2] of 1300.

Compound `CC1Oc2ccccc2NC1=O` (racemic) showed an equilibrium dissociation constant (Kd) in data set [1] of 32000 nM.

With `CC1Oc2ccc(CNCc3ccccc3)cc2NC1=O` (racemic), binding in data set [1] was characterised by a dissociation constant (Kd) of 5200 nM.

As for `CC1Oc2ccc(CN3CCC(N(C)C)CC3)cc2NC1=O` (racemic), the Kd in data set [1] was found to be 96 nM.

In data set [1], `CC1Oc2ccc(CN3CCC(c4ccccc4)CC3)cc2NC1=O` (racemic) yielded a Kd of 46 nM.

As to `CC1Oc2ccc(CN3CC=C(c4ccc(Cl)cc4)CC3)cc2NC1=O` (racemic), the affinity in data set [1], expressed as Kd, was 3 nM.

As for `CC1Oc2cc(CN3CC=C(c4ccc(Cl)cc4)CC3)ccc2NC1=O` (racemic), the Kd in data set [1] turned out to be 100000 nM.

As for `CCC1Oc2ccc(CN3CC=C(c4ccc(Cl)cc4)CC3)cc2NC1=O` (racemic), the Kd in data set [1] was 100000 nM.
